The values that follow come from EP2398468B1, “PHARMACEUTICAL COMPOSITIONS COMPRISING PRASUGREL BASE OR ITS PHARMACEUTICALLY ACCEPTABLE ACID ADDITION SALTS AND PROCESSES FOR THEIR PREPARATION” (KRKA, D.D., Novo Mesto, priority 2009, dated 2010).

The structures appear in SMILES notation. ≈ marks a conversion by molar mass, not a printed value. Where a name gives a salt, the structure may show the parent alone. Read-outs that look alike come from different tables or passages of the source.

Data set [1] can be described thus: Equilibrium solubility in aqueous solutions, shaking flask method for 24 hours. To be noted: for Solubility (mg/mL) at 37°C / Solubility (mg/mL) room temp / solubility at 24 h: 24 hours; for solubility at 24 h: thermodynamic from solid. The data set is classed as physicochemical. As to the method:
The solubility of prasugrel base and some of its pharmaceutically acceptable salts in different dissolution media (in mg/mL) at room temperature and 37°C is given in Table 2. The equilibrium solubility of prasugrel base and some of its salts were checked in aqueous solutions at room temperature and 37 °C with shaking flask method for 24 hours (Heidoplh Incubator 1000, Unimax 1010). In comparison with prasugrel base, all salts are better soluble in lower pH values. In higher pH values the solubility decreases and at pH 6.8 the compound is slightly soluble to practically insoluble. […]

The next data set in a line: physchem. It counts as physicochemical.

For the compound `CC(=O)Oc1cc2c(s1)CCN(C(C(=O)C1CC1)c1ccccc1F)C2` (stereo not drawn) [Prasugrel base, 2-acetoxy-5-([alpha]-cyclopropylcarbonyl-2-fluorobenzyl)-4,5,6,7-tetrahydrothieno[3,2-c]pyridine], the “Solubility (mg/mL) at 37°C” value in data set [1] (AGJ (without pepsin) pH 1.2, 37°C) is listed as 3.23 mg/mL (≈ 8650 µM); in data set [1] (Acetate Buffer solution pH 4.0, 37°C), 0.03 mg/mL (≈ 80.3 µM). The “Solubility (mg/mL) room temp” value in data set [1] (AGJ (without pepsin) pH 1.2, room temperature) is 1.54 mg/mL (≈ 4120 µM); in data set [1] (Acetate Buffer solution pH 4.0, room temperature), 0.03 mg/mL (≈ 80.3 µM). Moreover, the pKa (as a rule, the negative logarithm of the acid dissociation constant) in the data set “physchem” worked out at 5.4.
Consider `CC(=O)Oc1cc2c(s1)CCN(C(C(=O)C1CC1)c1ccccc1F)C2` (stereo not shown) [Prasugrel hydrobromide], for which the solubility at 24 h in data set [1] (AGJ (without pepsin) pH 1.2, 37 °C, pH 1.2, simulated gastric fluid, AGJ (without pepsin) pH 1.2, 37°C, read-out: Solubility (mg/mL) at 37°C) is 4.1 mg/mL; in data set [1] (phosphate buffer solution pH 6.8, pH 6.8, aqueous buffer, Phosphate Buffer solution pH 6.8, room temperature, read-out: Solubility (mg/mL) room temp), 0.003 mg/mL. Further, the “Solubility (mg/mL) room temp” value in data set [1] (AGJ (without pepsin) pH 1.2, room temperature, hydrobromide) is recorded as 3.924 mg/mL; in data set [1] (Acetate Buffer solution pH 4.0, room temperature, hydrobromide), 0.138 mg/mL. For the same compound, the “Solubility (mg/mL) at 37°C” value in data set [1] (Acetate Buffer solution pH 4.0, 37°C, hydrobromide) was determined as 0.153 mg/mL; in data set [1] (Phosphate Buffer solution pH 6.8, 37°C, hydrobromide), 0.009 mg/mL.
In the case of `CC(=O)Oc1cc2c(s1)CCN(C(C(=O)C1CC1)c1ccccc1F)C2` (stereo not shown) [Prasugrel hydrochloride], the “Solubility (mg/mL) at 37°C” value is 4.43 mg/mL in data set [1] (AGJ (without pepsin) pH 1.2, 37°C, hydrochloride) and 0.08 mg/mL in data set [1] (Acetate Buffer solution pH 4.0, 37°C, hydrochloride). The “Solubility (mg/mL) room temp” value in data set [1] (AGJ (without pepsin) pH 1.2, room temperature, hydrochloride) came out at 5.00 mg/mL; in data set [1] (Acetate Buffer solution pH 4.0, room temperature, hydrochloride) it was 0.07 mg/mL.
Take `CC(=O)Oc1cc2c(s1)CCN(C(C(=O)C1CC1)c1ccccc1F)C2` (stereo not shown) [Prasugrel hydroiodide]: the “Solubility (mg/mL) at 37°C” value in data set [1] (AGJ (without pepsin) pH 1.2, 37°C, hydroiodide) came out at 3.660 mg/mL; in data set [1] (Acetate Buffer solution pH 4.0, 37°C, hydroiodide), 0.166 mg/mL; in data set [1] (Phosphate Buffer solution pH 6.8, 37°C, hydroiodide) it was 0.0018 mg/mL. Further, the “Solubility (mg/mL) room temp” value in data set [1] (AGJ (without pepsin) pH 1.2, room temperature, hydroiodide) came to 2.600 mg/mL; in data set [1] (Acetate Buffer solution pH 4.0, room temperature, hydroiodide), 0.132 mg/mL; in data set [1] (Phosphate Buffer solution pH 6.8, room temperature, hydroiodide), 0.00316 mg/mL. Also, the equilibrium solubility entry in data set [1] (compared with hydrochloride salt of prasugrel) is listed as “comparable with solubility of hydrochloride salt of prasugrel”.
